What was measured:
tobacco plants = experiment: Germination tests of tobacco seeds in the presence of CL 299,263 (imazamox); format: in vivo, Nicotiana tabacum; settings: 2.5 μM CL 299,263
Description: Tobacco plants transformed with rationally designed AHAS genes as described in Example 8 above were also tested for cross-resistance to another herbicide, CL 299,263 (also known as imazamox).

tobacco shoots = experiment: Root formation of tobacco shoots on medium containing 0.25 μM imazethapyr; format: in vivo, Nicotiana tabacum cv. Wisconsin 38; settings: 0.25 μM imazethapyr in medium
Description: FIG. 13 is a photograph showing the root development of tobacco plants transformed with the Arabidopsis AHAS gene containing either the Met124Ile or Arg199Glu mutation and a non-transformed control. Plants were grown for 18 days after transfer into medium containing 0.25 μM imazethapyr.
Leaf disc transformation of Nicotiana tabacum cv. Wisconsin 38 was performed as described by Horsch et al. (Science, 227: 1229-1231, 1985) with slight modifications. Leaf discs were cut from plants grown under sterile conditions and co-cultivated upsidedown in Murashige Skoog media (Sigma Chemical Co., St. Louis, Mo.) for 2-3 days at 25° C. in darkness with Agrobacterium tumefaciens strains containing plasmids pJK002, pJK003, or pJK004. The discs were blotted dry and transferred to regeneration Murashige Skoog medium with B5 vitamins containing 1 mg/L benzyladenine and 0.1 mg/l 1-Napthyl Acetic Acid, 100 mg/L kanamycin, and 500 mg/L cefotaxime (all obtained from Sigma).
Initially, transformants were selected by kanamycin resistance conferred by the nptII gene present in the transformation vector. Shoots derived from the leaf discs were excised and placed on fresh Murashige Skoog hormone free media containing cefotaxime and kanamycin.
Kanamycin-resistant tobacco shoots were transferred to medium containing a 0.25 μM imazethapyr. […]

Compound: COCc1cnc(C2=NC(C)(C(C)C)C(=O)N2)c(C(=O)O)c1 (centres unmarked) [CL 299,263, imazamox]
- effect on wild-type tobacco plants (tobacco plants): severe stunting and bleaching

Compound: CCc1cnc(C2=NC(C)(C(C)C)C(=O)N2)c(C(=O)O)c1 (centres unmarked) [imazethapyr]
- root formation of non-transformed tobacco shoots (endogenous wild-type AHAS) (tobacco shoots): not able to initiate root formation
